Results taken from patent US20250204515A1, “Heparanase Inhibition for Graft Protection” (University of Pittsburgh - Of the Commonwealth System of …, priority 2022, published 2025).

What was measured:
[1] = tested on: human lung microvascular endothelial cells (HLMVECs); test: In-vitro cellular toxicity test for HPSE inhibitor candidates; details: HLMVECs, 24 hours
Description: In-vitro cellular toxicity test for HPSE Inhibitor candidates: Human lung microvascular endothelial cells (HLMVECs) were obtained from the American Type Culture Collection (Rockville, MD, USA). Cells were cultured in a humidified incubator at 37° C. and 5% CO2 and grown in endothelial growth medium (EGM™-2 Endothelial Cell Growth Medium-2, Lonza, Basel, Switzerland) supplemented with 2% heat-inactivated fetal bovine serum and 0.04% hydrocortisone. Cell media was replaced every 48 hours, and the cells were split upon 80-90% confluence.
Final tested concentrations of HPSE inhibitors were calculated based upon repeatable in vitro dose-response studies. After 24 hours incubation, cell viability was confirmed by Trypan blue exclusion assay. Total mRNA was isolated using Trizol (Thermo Fisher Scientific Inc., Waltham, MA) and relative messenger RNA (mRNA) expression levels of hemeoxygenase-1 (HO-1), interleukin (IL)-6, tumor necrosis factor (TNF)-α, monocyte chemoattractant protein (MCP)-1, B-cell lymphoma 2 Associated X (Bax), B-cell lymphoma 2 (Bcl-2), B-cell lymphoma-extra-large (Bcl-xL) were quantified by SYBR Green 2-step, real-time, reverse transcription-polymerase chain reaction (RT-PCR). Relative gene expression levels were normalized to mRNA expression of glyceraldehyde-3-phosphate dehydrogenase (GAPDH) and compared to relative mRNA expression levels in control-treated HLMVEC.

heparanase (HPSE) = test: In vitro β-D-glucuronidase activity assay (4-MUG substrate); details: in vitro, FIG. 8
Description: In vitro β-D-glucuronidase activity assay Heparanase activity was measured via β-Glucuronidase activity assay using 4-methylumbelliferyl-β-D-glucuronide (4-MUG) substrate (Millipore-Sigma). As a source of enzymes, platelet rich plasma (PRP) obtained from rat whole blood or rat lung whole tissue lysate, was used. […] Fluorescence (λex 360 nm/λem 460 nm) was continuously measured for 60 minutes using a fluorescence microplate reader (BioTech Synergy HTX, Agilent Technologies, Santa Clara, CA).

[2] = tested on: HPSE1, MMP2, IL-6, IL-1β, TNF-α mRNA; IκB-α; test: Real-time RT-PCR and western blotting in rat lung tissue after 4 hours of EVLP
Description: (§1) Graft tissues collected after 4 hours of EVLP and 2 hours after reperfusion were examined for relative mRNA expression levels of interleukin (IL)-6, IL-1, tumor necrosis factor (TNF)-α, and glyceraldehyde-3-phosphate dehydrogenase (GAPDH). Gene expression levels were normalized to GAPDH mRNA levels.
Western blotting: Total isolated proteins were extracted/resolved by 10% SDS-PAGE followed by transfer to 0.2 μm nitrocellulose membranes (Bio-Rad Laboratories, Hercules, CA, USA). Membranes were blocked with 5% non-fat milk at room temperature for 2 hours and then incubated overnight at 4° C. with the following primary antibodies: inhibitor of KB-α (IκB-α; #9242, Cell Signaling Technology, Inc., Danvers, MA) and β-actin (#A1978, Millipore-Sigma). Membranes were then incubated with either goat anti-mouse IgG (H+L) (#31430, Thermo Fisher Scientific Inc.; 1:5000) or goat anti-rabbit IgG (H+L) (#31460, Thermo Fisher Scientific Inc.; 1:3000) horseradish peroxidase-conjugated polyclonal secondary antibodies at room temperature for 2 hours. Proteins were visualized using an enhanced chemiluminescence kit (Abcam), and protein bands were imaged and analyzed using Image Lab software (Version 6.0; Bio-Rad Laboratories, Inc., Hercules, CA). The intensities of protein bands were quantitated by Image J software (National Institutes of Health, Bethesda, MD).

rat lung grafts = test: Rat orthotopic left lung transplantation following EVLP; format: in vivo
Description: Rat orthotopic left lung transplantation following EVLP: Orthotopic, single-lung transplantation of the left lung was performed using the 3-cuff method. After EVLP for 4 hours, the lungs were cooled with 4° C. Perfadex on the EVLP system and stored at 4° C. for 1 hour prior to transplantation. The recipient animals were sacrificed 2 hours after reperfusion. When analyzing graft function, the native lung was clamped, 100% 02 was administered for 5 minutes through a ventilator, and the recipient's blood was sampled from the graft pulmonary vein for blood gas analysis.
as §1
(§2) Tissue staining and histopathological analysis: Formalin-fixed, paraffin-embedded lung tissues collected 2 hours after transplantation were sectioned to 4 μm thickness and stained with hematoxylin and eosin. In parallel, sections of tissue collected after 4 hours of EVLP were stained for immunofluorescence imaging using primary antibodies for syndecan-1 (DL-101) (#sc-12765, Santa Cruz) and caveolin-1 (#3238, Cell Signaling Technology, Danvers, MA) and with Hoechst 33342 dye (Thermo Scientific). Donkey Cy3-conjugated anti-mouse IgG (#AP192C, MilliporeSigma, Burlington, MA) and Cy5-conjugated goat anti-rabbit IgG (#A10523, Thermo Scientific) secondary antibodies were used to detect primary antibodies. Stained slides were scanned with a whole-slide image scanner (Axio Scan.Z1; Carl Zeiss AB, Oberkochen, Germany) and analyzed with digital image processing software (ZEN lite blue edition; Carl Zeiss).

rat lungs = test: Rat EVLP for 4 hours with HPSE inhibitors in the perfusate: physiology, endothelial barrier, edema; details: heparin 1000-U/hour or SF4 1 μM in perfusate
Description: In the heparin group, 1000-U of heparin were initially added to the EVLP perfusate, then 1000-U of heparin were administered every hour during EVLP. […] Two control conditions were included in the experimental protocol: 1) sham controls (Sham) were lungs not placed on EVLP and 2) untreated controls (Control) were lungs placed on EVLP without HPSE inhibitor treatment. EVLP physiology, endothelial integrity, inflammation and glycocalyx preservation for EVLP lungs and post-transplant lung grafts were investigated across all treatment regimens.
Ex vivo lung perfusion in rats: EVLP was performed using a commercially-available rodent EVLP system (IL-2 Isolated Perfused Rat or Guinea Pig Lung System; Harvard apparatus, Holliston, MA). Acellular Steen solution was used for EVLP perfusate and medicated with methylprednisolone (Solu-Medrol®; Pfizer, Inc., New York, NY) and cephalosporin (Cefazolin; WG critical care LLC, Paramus, NJ) equally in all experimental groups. […] Pulmonary artery pressure, peak airway pressure, and airway flow were monitored continuously, and dynamic lung compliance (Cdyn) and pulmonary vascular resistance (PVR) were analyzed.
Evaluation of endothellal barrier Integrity After 4 hours of EVLP, 60 mg of Evans blue dye (EBD, Millipore-Sigma, Burlington, MA) was administered into the perfusate to assess vascular endothelial permeability. After 30 minutes of perfusion, the lung vascular bed was rinsed with 20 ml of phosphate-buffered saline (PBS), and slices of lungs were incubated in formamide (Millipore Sigma) overnight at 60° C. Absorbance of the extractant was measured at 620 nm, and EBD was normalized to dry-tissue weight.
Wet-to-Dry (W/D) weight ratio: Lung tissues collected 2 hours after transplant were immediately weighed then placed in a 60° C. oven to dry for 72 hours. Tissues were weighed again after drying to determine the wet-to-dry lung weight ratio.

[3] = tested on: glycosaminoglycans (GAGs), syndecan-1; test: Glycocalyx shedding in rat lungs during EVLP (GAGs, syndecan-1 ELISA, immunofluorescence)
Description: Syndecan-1 ELISA: Syndecan-1 concentrations in EVLP perfusate were quantitated using ELISA (Immunotag™ Rat Syndecan-1 ELISA, G-Biosciences, Geno Technology, Inc., St. Louis, MO). ELISA was performed according to the manufacturer's instructions using perfusate samples acquired after 4 hours of EVLP.
Determination of glycosaminoglycans (GAGS): The concentration of GAGs in rat EVLP perfusate at 4 hours was quantitated using 1,9-dimethylmethylene blue (DMMB, Millipore Sigma). The DMMB solution (pH˜3.0) was prepared by dissolving 16 mg/I DMMB in distilled H2O containing 3.04 g/I glycine, 1.6 g/l NaCl and 95 ml 0.1 M acetic acid. Briefly, 1 ml DMMB solution was mixed with 100 μl EVLP perfusate then incubated for 18 h at room temperature. The tubes were then centrifuged at 14,000 rpm for 20 min at 4° C. Supernatants were carefully decanted, 100 μl dissolvent buffer (4 M guanidine hydrochloride, 50 mM sodium acetate, 10% propan-1-ol, pH 6.8) was added to each pellet, and the tubes were incubated at 40° C. and vortexed until GAG-DMMB pellets were completely dissolved. GAG content in each sample was measured spectrophotometrically at 656 nm.
as §2

[4] = 100 nM SF4, 250 mM amodiaquine, 250 mM triazolothiadiazoles
[5] = 2 hours after transplant, vs untreated control and heparin-pretreated lungs

SMILES	Relative mRNA expression (compared to control) Bax ([1]; 100 nM SF4)	Relative mRNA expression (compared to control) Bcl-xl [1, 4]	Relative mRNA expression (compared to control) HO-1 [1, 4]	Relative mRNA expression (compared to control) IL6 [1, 4]	Relative mRNA expression (compared to control) MCP1 [1, 4]	β-D-glucuronidase activity, dose response (heparanase (HPSE))	IL-1β mRNA expression ([2]; lung tissue after 4-hours EVLP)	IL-6 mRNA expression ([2]; lung tissue after 4-hours EVLP)	TNF-α mRNA expression ([2]; lung tissue after 4-hours EVLP)	IκB-α expression (western blot) ([2]; lung tissue after 4-hours EVLP, vs control and heparin groups)	HPSE1 mRNA expression ([2]; lung tissue after 4 hours of EVLP, vs sham)	H&E histology of grafts (rat lung grafts; 2 hours after transplant following 4 hours of EVLP)	IL-1β mRNA expression (rat lung grafts; [5])	IL-6 mRNA expression (rat lung grafts; [5])	TNF-α mRNA expression (rat lung grafts; [5])	dynamic lung compliance (Cdyn) during EVLP (rat lungs; 4-hour EVLP, vs control)	Evans blue dye (EBD) accumulation in lung tissue (rat lungs; after 4-hours EVLP)	syndecan-1 immunofluorescent staining of lung endothelial lumen ([3]; after 4-hours EVLP, vs controls and heparin-treated)	syndecan-1 concentration in EVLP perfusate ([3]; after 4 hours EVLP, SF4 vs heparin-treated, heparin vs controls)	GAGs content in EVLP perfusate ([3]; at 4-hours EVLP, vs controls)
CCN(CC)Cc1cc(Nc2ccnc3cc(Cl)ccc23)ccc1O [Amodiaquine, amodiaquine]	0.71	1.30	2.94	13.55	3.45	dose-dependent														
O=C(O)Cc1ccc2oc(-c3ccc(NC(=O)/C=C/c4ccc(Br)cc4)c(F)c3)nc2c1 [OGT-2113]						dose-dependent														
Cl.O=C(O)[C@H]1CN[C@H](NC(=O)C(F)(F)F)[C@@H](O)[C@H]1O [SF4, (3S,4S,5R,6R)-4,5-dihydroxy-6-[(2,2,2-trifluoroacetyl)amino]piperidine-3-carboxylic acid]							significantly downregulated	significantly downregulated	significantly downregulated	significantly stabilized	not altered	reduced swollen alveolar walls, congestion in the blood vessels, and fluid leaks	significantly lower	significantly lower	significantly lower	neither heparin nor SF4 altered Cdyn	markedly decreased	significantly increased staining	significantly lower	significantly reduced
